Data as given in patent US7388016B2, “Dibenzonaphthyridine derivatives and methods of use thereof” (Wyeth, priority 2005, dated 2008).

Each molecule was assayed against T1, PDK-1 (Homo sapiens, UniProt O15530) (assay: In vitro PDK-1 inhibition ELISA assay (phosphorylation of SGK1 on Threonine 256)). Conditions: PDK-1 phosphorylates 6xHIS tagged SGK1, 17 minutes reaction, chemiluminescent detection.
T1 sequence (O15530 1-556): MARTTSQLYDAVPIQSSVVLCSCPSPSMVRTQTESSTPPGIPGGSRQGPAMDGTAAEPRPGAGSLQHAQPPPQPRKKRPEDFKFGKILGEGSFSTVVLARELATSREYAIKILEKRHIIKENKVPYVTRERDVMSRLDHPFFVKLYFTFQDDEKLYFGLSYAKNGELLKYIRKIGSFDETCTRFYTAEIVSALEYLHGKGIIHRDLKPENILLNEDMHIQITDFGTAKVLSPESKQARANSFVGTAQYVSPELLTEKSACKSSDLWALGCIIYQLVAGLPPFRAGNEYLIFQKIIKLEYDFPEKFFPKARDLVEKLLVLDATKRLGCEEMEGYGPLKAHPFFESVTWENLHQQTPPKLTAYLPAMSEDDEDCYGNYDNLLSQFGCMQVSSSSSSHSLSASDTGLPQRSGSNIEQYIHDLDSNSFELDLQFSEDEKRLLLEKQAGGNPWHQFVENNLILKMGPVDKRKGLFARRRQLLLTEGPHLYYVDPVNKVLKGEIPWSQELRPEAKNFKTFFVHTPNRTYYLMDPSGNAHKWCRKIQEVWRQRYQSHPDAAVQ
Type: biochemical
Procedure: The ability of illustrative Dibenzonaphthyridine Derivatives to inhibit PDK-1 in vitro can be determined using the ELISA assay as decribed in Kobayashi et al., Biochem. J. 339:319-328 (1999) and Park et al., EMBO J. 18:3024-3033 (1999).
In this in vitro assay, PDK-1 kinase phosphorylates SGK1 on Threonine 256. After 17 minutes, the reaction is quenched via the addition of urea. The 6×HIS tagged SGK1 is then bound to 96 well Ni-NTA HisSorb plates and the phosphorylated SGK1 is detected using rabbit derived anti-phospho SGK antibody as the primary antibody and HRP coupled anti-rabbit antibody as the secondary antibody. HRP is then detected using a Chemiluminescent Substrate.
Molecule COc1cc2ncc3c(OC)nc4c(C)c(OC)ccc4c3c2cc1OC [Compound I-1, 2,3,7,10-tetramethoxy-9-methyldibenzo[c,f]-2,7-naphthyridine] has an IC50 of 23800 nM. COc1cc2ncc3cnc4c(C)c(N)ccc4c3c2cc1OC [Compound I-3, 10,11-dimethoxy-4-methyldibenzo[c,f]-2,7-naphthyridin-3-amine] gave an IC50 of 2500 nM. Molecule COc1cc2ncc3c(N)nc4ccccc4c3c2cc1OC [Ib-1, 10,11-dimethoxydibenzo[c,f]-2,7-naphthyridin-6-amine] has an IC50 of 2400 nM. Molecule COc1cc2ncc3c(N)nc4c(C)c(N)ccc4c3c2cc1OC [Ib-2, 10,11-dimethoxy-4-methyldibenzo[c,f]-2,7-naphthyridine-3,6-diamine] has an IC50 of 93 nM. Molecule CCOc1cc2ncc3c(N)nc4c(C)c(N)ccc4c3c2cc1OCC [Ib-3, 10,11-diethoxy-4-methyldibenzo[c,f]-2,7-naphthyridine-3,6-diamine] has an IC50 of 273 nM. Work on COc1cc2c(cc1F)ncc1c(N)nc3c(C)c(N)ccc3c12 [Ib-4, 10-fluoro-11-methoxy-4-methyldibenzo[c,f]-2,7-naphthyridine-3,6-diamine] yielded an IC50 of 388 nM. COc1cc2c(cc1N(C)CCCN(C)C)ncc1c(N)nc3c(C)c(N)ccc3c12 [Ib-5, N^10-[3-(dimethylamino)propyl]-11-methoxy-N^10,4-dimethyldibenzo[c,f]-2,7-naphthyridine-3,6,10-triamine] gave an IC50 of 1010 nM. COc1cc2c(cc1N(C)CCN(C)C)ncc1c(N)nc3c(C)c(N)ccc3c12 [Ib-6, N^10-[2-(dimethylamino)ethyl]-11-methoxy-N^10,4-dimethyldibenzo[c,f]-2,7-naphthyridine-3,6,10-triamine] showed an IC50 of 1170 nM. In the case of COc1cc2c(cc1NCCCN1CCN(C)CC1)ncc1c(N)nc3c(C)c(N)ccc3c12 [Ib-7, 11-methoxy-4-methyl-N^10-[3-(4-methylpiperazin-1-yl)propyl]dibenzo[c,f]-2,7-naphthyridine-3,6,10-triamine], the IC50 is reported as 555 nM. COc1cc2c(cc1NCCCN1CCOCC1)ncc1c(N)nc3c(C)c(N)ccc3c12 [Ib-8, 11-methoxy-4-methyl-N^10-(3-morpholin-4-ylpropyl)dibenzo[c,f]-2,7-naphthyridine-3,6,10-triamine] was tested, and the IC50 was 290 nM. Work on COc1cc2c(cc1NCCN1CCOCC1)ncc1c(N)nc3c(C)c(N)ccc3c12 [Ib-9, 11-methoxy-4-methyl-N^10-(2-morpholin-4-ylethyl)dibenzo[c,f]-2,7-naphthyridine-3,6,10-triamine] yielded an IC50 of 296 nM. COc1cc2c(cc1OCCN1CCOCC1)ncc1c(N)nc3c(C)c(N)ccc3c12 [Ib-10, 11-methoxy-4-methyl-10-(2-morpholin-4-ylethoxy)dibenzo[c,f]-2,7-naphthyridine-3,6-diamine] was tested, and the IC50 was 57.5 nM. For COc1cc2c(cc1OCCCN1CCOCC1)ncc1c(N)nc3c(C)c(N)ccc3c12 [Ib-11, 11-methoxy-4-methyl-10-(3-morpholin-4-ylpropoxy)dibenzo[c,f]-2,7-naphthyridine-3,6-diamine], the IC50 was 121 nM. Molecule COc1cc2c(cc1NCCCN1CCCC1)ncc1c(N)nc3c(C)c(N)ccc3c12 [Ib-12, 11-methoxy-4-methyl-N^10-(3-pyrrolidin-1-ylpropyl)dibenzo[c,f]-2,7-naphthyridine-3,6,10-triamine] has an IC50 of 846 nM. With COc1cc2c(cc1NCCN1CCCC1)ncc1c(N)nc3c(C)c(N)ccc3c12 [Ib-13, 11-methoxy-4-methyl-N^10-(2-pyrrolidin-1-ylethyl)dibenzo[c,f]-2,7-naphthyridine-3,6,10-triamine] the IC50 was 3710 nM. COc1cc2c(cc1NCCN(C)C)ncc1c(N)nc3c(C)c(N)ccc3c12 [Ib-14, N^10-[2-(dimethylamino)ethyl]-11-methoxy-4-methyldibenzo[c,f]-2,7-naphthyridine-3,6,10-triamine] was tested, and the IC50 was 2410 nM. COc1cc2c(cc1NCCCN(C)C)ncc1c(N)nc3c(C)c(N)ccc3c12 [Ib-15, N^10-[3-(dimethylamino)propyl]-11-methoxy-4-methyldibenzo[c,f]-2,7-naphthyridine-3,6,10-triamine] gave an IC50 of 972 nM. With COc1cc2c(cc1OCC1CCN(C)CC1)ncc1c(N)nc3c(C)c(N)ccc3c12 [Ib-16, 11-methoxy-4-methyl-10-[(1-methylpiperidin-4-yl)methoxy]dibenzo[c,f]-2,7-naphthyridine-3,6-diamine] the IC50 was 878 nM. With COCCOc1cc2ncc3c(N)nc4c(C)c(N)ccc4c3c2cc1OCCOC [Ib-17, 10,11-bis(2-methoxyethoxy)-4-methyldibenzo[c,f]-2,7-naphthyridine-3,6-diamine] the IC50 was 275 nM. COc1cc2c(cc1OCCCl)ncc1c(N)nc3c(C)c(N)ccc3c12 [Ib-18, 10-(2-chloroethoxy)-11-methoxy-4-methyldibenzo[c,f]-2,7-naphthyridine-3,6-diamine] gave an IC50 of 42.5 nM. Work on COc1cc2c(cc1OCCN1CC1)ncc1c(N)nc3c(C)c(N)ccc3c12 [Ib-19, 10-(2-aziridin-1-ylethoxy)-11-methoxy-4-methyldibenzo[c,f]-2,7-naphthyridine-3,6-diamine] yielded an IC50 of 482 nM. Work on COc1cc2c(cc1OCCN(C)C)ncc1c(N)nc3c(C)c(N)ccc3c12 [Ib-20, 10-[2-(dimethylamino)ethoxy]-11-methoxy-4-methyldibenzo[c,f]-2,7-naphthyridine-3,6-diamine] yielded an IC50 of 377 nM. COc1cc2c(cc1OCCCN(C)C)ncc1c(N)nc3c(C)c(N)ccc3c12 [Ib-21, 10-[3-(dimethylamino)propoxy]-11-methoxy-4-methyldibenzo[c,f]-2,7-naphthyridine-3,6-diamine] showed an IC50 of 196 nM. COc1cc2c(cc1OCCN1CCCC1)ncc1c(N)nc3c(C)c(N)ccc3c12 [Ib-22, 11-methoxy-4-methyl-10-(2-pyrrolidin-1-ylethoxy)dibenzo[c,f]-2,7-naphthyridine-3,6-diamine] gave an IC50 of 261 nM. In the case of CCN(CC)CCOc1cc2ncc3c(N)nc4c(C)c(N)ccc4c3c2cc1OC [Ib-23, 10-[2-(diethylamino)ethoxy]-11-methoxy-4-methyldibenzo[c,f]-2,7-naphthyridine-3,6-diamine], the IC50 is reported as 347 nM. In the case of COc1cc2c(cc1OCCc1ccccn1)ncc1c(N)nc3c(C)c(N)ccc3c12 [Ib-24, 11-methoxy-4-methyl-10-(2-pyridin-2-ylethoxy)dibenzo[c,f]-2,7-naphthyridine-3,6-diamine], the IC50 is reported as 2860 nM. Molecule COc1cc2c(cc1OCCC1CCCN1C)ncc1c(N)nc3c(C)c(N)ccc3c12 (stereo not drawn) [Ib-25, 11-methoxy-4-methyl-10-[2-(1-methylpyrrolidin-2-yl)ethoxy]dibenzo[c,f]-2,7-naphthyridine-3,6-diamine] has an IC50 of 288 nM. For COc1cc2c(cc1OCCN1CCCCC1)ncc1c(N)nc3c(C)c(N)ccc3c12 [Ib-26, 11-methoxy-4-methyl-10-(2-piperidin-1-ylethoxy)dibenzo[c,f]-2,7-naphthyridine-3,6-diamine], the IC50 was 324 nM. Work on CCN(CC)CCCOc1cc2ncc3c(N)nc4c(C)c(N)ccc4c3c2cc1OC [Ib-27, 10-[3-(diethylamino)propoxy]-11-methoxy-4-methyldibenzo[c,f]-2,7-naphthyridine-3,6-diamine] yielded an IC50 of 295 nM. Molecule COc1cc2c(cc1OCCN1CCCCCC1)ncc1c(N)nc3c(C)c(N)ccc3c12 [Ib-28, 10-(2-azepan-1-ylethoxy)-11-methoxy-4-methyldibenzo[c,f]-2,7-naphthyridine-3,6-diamine] has an IC50 of 350 nM.
